Experimental data taken from US20090181953A1, “COMPOUND FORMS AND USES THEREOF” (WYETH, priority 2008, published 2009).
Blank lines part the entries; values can stand above or below the molecule they belong to.

Legend:
[1] = molecular target: T1, α7 nicotinic acetylcholine receptor (Rattus norvegicus, UniProt Q05941); test: functional FLIPR assay, α7 nAChR stably expressed in GH4C1 cells; type: cell-based; conditions: GH4C1 cells stably transfected with rat α7 nAChR; agonist concentration range 0.001 to 30 microM
T1 construct: expressed in transfected cells

[2] = solubility of hydrochloride crystal forms; type: physicochemical
[3] = hygroscopicity, Dynamic Vapor Sorption (DVS); type: physicochemical; conditions: for water absorbed eventually (up to): 90% RH; for RH at which moisture pick-up starts: relative humidity; for Hygroscopicity: hydrochloric acid salt
Protocol: Salt forms of a compound of formula 1 were investigated with X-ray powder diffraction, DSC, TGA and microscopy. FIG. 1 illustrates X-ray patterns observed for various salt forms. FIGS. 2 and 3 present results of thermal studies performed on such salt forms. FIGS. 4 and 5 present DVS data of sulfuric and phosphoric salts. […] FIGS. 6-12 show characterization data for hydrochloride salt forms.
Dynamic Vapor Sorption (DVS) was done at 25-26° C.

T1 sequence (Q05941 23-502): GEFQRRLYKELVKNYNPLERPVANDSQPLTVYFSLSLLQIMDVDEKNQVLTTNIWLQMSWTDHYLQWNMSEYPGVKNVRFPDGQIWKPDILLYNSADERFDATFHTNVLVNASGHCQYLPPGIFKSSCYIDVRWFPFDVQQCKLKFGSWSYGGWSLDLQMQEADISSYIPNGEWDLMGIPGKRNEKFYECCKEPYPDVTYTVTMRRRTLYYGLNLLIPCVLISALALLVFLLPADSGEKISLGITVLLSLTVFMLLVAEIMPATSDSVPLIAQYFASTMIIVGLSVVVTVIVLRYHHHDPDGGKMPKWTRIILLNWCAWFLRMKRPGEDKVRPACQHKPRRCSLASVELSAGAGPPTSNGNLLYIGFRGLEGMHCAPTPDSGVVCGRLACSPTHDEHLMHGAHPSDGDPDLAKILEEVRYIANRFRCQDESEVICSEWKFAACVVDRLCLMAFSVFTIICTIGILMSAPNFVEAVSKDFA

Molecule: C[N+]1(C)CCN(c2ccccc2)CC1 [DMPP]
EC50 [1]: 980 ± 470 nM

Molecule: COc1ccc(-c2cc(NC(=O)CCCCN3CCCN(C(C)=O)CC3)n[nH]2)cc1.Cl [Form I, 5-(4-acetyl-1,4-diazepan-1-yl)-N-(5-(4-methoxyphenyl)-1H-pyrazol-3-yl)pentanamide hydrochloric salt Form I]
solubility in water (in words) [2]: considerably soluble
moisture gained at 70-100% RH ([3]; 70-100% RH, lost without significant hysteresis on decreasing RH): at least 2%
water absorbed eventually (up to) [3]: up to 2%
moisture gained when equilibrated at RH less than or equal to 70% ([3]; RH <= 70%): about 0.5%
RH at which moisture pick-up starts [3]: about 50%

Molecule: COc1ccc(-c2cc(NC(=O)CCCCN3CCCN(C(C)=O)CC3)n[nH]2)cc1.Cl [Form II, 5-(4-acetyl-1,4-diazepan-1-yl)-N-(5-(4-methoxyphenyl)-1H-pyrazol-3-yl)pentanamide hydrochloric salt Form II]
solubility in water (in words) [2]: considerably soluble
water absorbed eventually (up to) [3]: up to 7%
water held at low RH ([3]; low RH (0%)): 2%
RH at which moisture pick-up starts [3]: about 20%

Molecule: Sulfuric acid
water held at 50% RH [3]: maintains 0.4%
water held at 50% RH ([3]; listed as sulfate salt form): about 0.4%
water held at 50% RH ([3]; listed as sulfuric salt form): about 0.4%
gain below 70% RH ([3]; below 70% RH): 0.5%
Hygroscopicity (in words) ([3]; listed as sulfate salt): non-hygroscopic
Hygroscopicity (in words) ([3]; listed as sulfate salt form): low degree of hygroscopicity
Hygroscopicity (in words) ([3]; listed as sulfuric salt form): low degree of hygroscopicity

Second part, the molecule after the results:

solubility ([2]; MC/T, aqueous with cosolvent or surfactant or cyclodextrin): > 100 mg/mL
water held at 50% RH ([3]; listed as Crystal Form III): (10% water
Hygroscopicity (in words) ([3]; listed as Crystal Form III): Hygroscopic
Molecule: COc1ccc(-c2cc(NC(=O)CCCCN3CCCN(C(C)=O)CC3)n[nH]2)cc1.Cl [Form III]

water held at 50% RH ([3]; listed as Crystal Form V): (7% at RH
Hygroscopicity (in words) ([3]; listed as Crystal Form V): Hygroscopic
Molecule: COc1ccc(-c2cc(NC(=O)CCCCN3CCCN(C(C)=O)CC3)n[nH]2)cc1.Cl [Form V]

melting point: 132 to 133 °C
Hygroscopicity ([3]; crystalline solid with melting onset 125° C. (first of two such lines)): Yes
Hygroscopicity ([3]; crystalline solid with melting onset 165° C.): Somewhat
Hygroscopicity ([3]; crystalline solid with melting onset 185° C.): No
Hygroscopicity ([3]; solid with three peaks: about 100, about 180 and about 200° C.): Yes
hygroscopicity of the sample ([3]; hydrochloride salt of Example 2D, precipitated from DCM with HCl in Et2O): extreme hygroscopicity
Hygroscopicity (in words) ([3]; listed as hydrochloride): non-hygroscopic
Molecule: COc1ccc(-c2cc(NC(=O)CCCCN3CCCN(C(C)=O)CC3)n[nH]2)cc1.Cl [Hydrochloric acid, 5-(4-acetyl-1,4-diazepan-1-yl)-N-(5-(4-methoxyphenyl)-1H-pyrazol-3-yl)pentanamide hydrogen chloride]
